Assay results published in paper PMC6804044, “Design, Synthesis and Biological Evaluation of Pentacyclic Triterpene Derivatives: Optimization of Anti-ABL Kinase Activity” (Molecules, 2019).
“Also recorded” adds a separate entry of the source. Like-named read-outs stand apart in the source and are kept apart here.

Legend:
[1] = test system: peripheral blood mononuclear cells (PBMC); experiment: MTT cell viability assay, PBMC; type: cell-based; conditions: PBMC, 24 h exposure
Method: (§1) A549 human lung carcinoma and HeLa human cervical carcinoma cell lines were cultured in Dulbecco’s Modified Eagle Medium (DMEM). MCF7 human breast cancer and leukemic (K562, HL-60, MT-2 and Jurkat) cells, and PBMC (Precision Bioservices, Frederic, MD, USA) were cultured in RPMI 1640. All media were purchased from FUJIFILM Wako (Osaka, Japan) and supplemented with 10% fetal bovine serum (FBS) (Sigma-Aldrich, St. Louis, MO, USA) and 89 μg/mL streptomycin (Meiji Seika Pharma, Tokyo, Japan) at 37 °C in a humid atmosphere and 5% CO2. In experiments, all cancer cell lines and PBMC were cultured in 24-well and 96-well plates (Iwaki brand Asahi Glass, Chiba, Japan) at 2 × 10^4 cells/mL and 1 × 10^6 cells/mL concentrations, respectively for 24 h.
(§2) The cells were exposed to various concentrations (1–100 μM) of the compounds for 24 h at 37 °C. The cells were then stained with MTT solution and incubated for additional 4 h. At the end of this period, supernatants were removed and 100 μL DMSO was added to each well to solubilize the formazan crystals. The absorbance of the solution was determined on the Infinitive M1000 (Tecan, Mannedorf, Switzerland) plate reader at a wavelength of 550 nm with background subtraction at 630 nm.

CML cell line K562 = experiment: MTT cell viability assay, K562; type: cell-based, human; conditions: for IC50: MTT, 24 h exposure, read-out: IC50 Values, K562 Cell Line; for SI (selectivity index): ratio of the IC50 between PBMC and K562 cells
Method: A549 human lung carcinoma and HeLa human cervical carcinoma cell lines were cultured in Dulbecco’s Modified Eagle Medium (DMEM). […] In experiments, all cancer cell lines and PBMC were cultured in 24-well and 96-well plates (Iwaki brand Asahi Glass, Chiba, Japan) at 2 × 10^4 cells/mL and 1 × 10^6 cells/mL concentrations, respectively for 24 h.
as §2, with “The” for “The cells were exposed to various concentrations (1–100 μM) of the compounds for 24 h at 37 °C. The”

MCF7 human breast cancer = experiment: MTT cell viability assay, MCF7; type: cell-based; conditions: 24 h exposure
Method: as §1, §2

[2] = test system: ERK1/2 and phosphorylated ERK1/2 in K562 cells; experiment: Immunoblot analysis of ERK signaling in K562; type: cell-based, human; conditions: K562, 10 μM, 6 h
Method: After 6 h of treatment at 37 °C, the cells were lysed in PBS-Laemmli sample buffer and then, immunoblot analysis was conducted using phospho-specific-p44/42 MAPK (Erk1/2) (Thr202/Tyr204) (D13.14.4E) XP Rabbit mAb (1:1000) (Cell Signaling Technology, Danvers, MA, USA) or anti-β-actin clone AC-15 (Sigma-Aldrich, St. Louis, MO, USA). For immunoreactivity detection, the chemiluminescence method was performed as previously described. The band intensity was measured using the ImageJ software (NIH, Bethesda, MD, USA).

MT-2 = experiment: MTT cell viability assay, MT-2; type: cell-based; conditions: Homo sapiens, MT2, 24 h exposure
Method: as §1, §2

Jurkat = experiment: MTT cell viability assay, Jurkat; type: cell-based; conditions: Homo sapiens, 24 h exposure
Method: as §1, §2

[3] = test system: HeLa human cervical carcinoma; experiment: MTT cell viability assay, HeLa; type: cell-based; conditions: 24 h exposure
Method: as §1, §2

HL-60 = experiment: MTT cell viability assay, HL-60; type: cell-based; conditions: Homo sapiens, 24 h exposure
Method: as §1, §2

ABL1 kinase [4] = target: T1, ABL1 kinase (Homo sapiens, UniProt P00519); experiment: ABL1 kinase inhibition (ADP-Glo Kinase Assay); type: biochemical; conditions: for IC50: ADP-Glo, 1 h incubation, room temperature
T1 construct: purchased Promega, Madison, WI, USA
T1 sequence (P00519 whole entry): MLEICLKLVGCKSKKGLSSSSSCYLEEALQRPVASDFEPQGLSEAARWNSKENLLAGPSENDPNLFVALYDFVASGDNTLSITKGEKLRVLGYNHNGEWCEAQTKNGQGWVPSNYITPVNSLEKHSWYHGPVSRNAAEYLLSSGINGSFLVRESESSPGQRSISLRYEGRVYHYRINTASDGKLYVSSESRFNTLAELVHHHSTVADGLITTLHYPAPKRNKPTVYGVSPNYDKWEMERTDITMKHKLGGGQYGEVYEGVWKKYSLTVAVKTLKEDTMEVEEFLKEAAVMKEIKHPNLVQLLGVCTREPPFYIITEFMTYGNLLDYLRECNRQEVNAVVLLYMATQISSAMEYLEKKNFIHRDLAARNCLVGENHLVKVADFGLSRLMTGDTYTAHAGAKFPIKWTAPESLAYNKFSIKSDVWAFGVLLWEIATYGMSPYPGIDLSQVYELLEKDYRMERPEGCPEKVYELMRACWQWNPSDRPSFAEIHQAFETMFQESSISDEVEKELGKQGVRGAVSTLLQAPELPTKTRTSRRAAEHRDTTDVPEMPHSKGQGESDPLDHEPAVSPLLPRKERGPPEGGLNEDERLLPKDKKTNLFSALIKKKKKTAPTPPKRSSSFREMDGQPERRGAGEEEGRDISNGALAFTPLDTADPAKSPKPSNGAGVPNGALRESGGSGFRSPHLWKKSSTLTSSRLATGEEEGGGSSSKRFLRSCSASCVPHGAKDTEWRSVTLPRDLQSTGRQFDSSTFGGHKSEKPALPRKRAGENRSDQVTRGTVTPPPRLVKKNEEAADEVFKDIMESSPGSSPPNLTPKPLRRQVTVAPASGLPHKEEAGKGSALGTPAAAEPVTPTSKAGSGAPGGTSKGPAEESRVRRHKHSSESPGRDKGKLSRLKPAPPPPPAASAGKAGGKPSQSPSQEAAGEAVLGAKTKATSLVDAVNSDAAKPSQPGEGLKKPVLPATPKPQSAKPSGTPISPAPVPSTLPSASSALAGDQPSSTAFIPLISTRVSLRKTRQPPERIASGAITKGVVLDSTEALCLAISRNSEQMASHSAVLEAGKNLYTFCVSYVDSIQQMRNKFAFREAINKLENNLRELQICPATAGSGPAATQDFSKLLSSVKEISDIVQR
Method: The ABL1 kinase profiling assay protocol was applied according to the manufacturer`s instructions (Promega, Madison, WI, USA) with the modification proposed in [36]. In this system, the ABL1 kinase and its substrate were diluted with 95 µL 2.5x Kinase Buffer and 15 µL of 100 µM ATP solutions, respectively. Then, the reaction of ABL1 kinase was performed using 2 µL of the compound solution at varying concentrations (0.1–30 µM), 4 µL of kinase working stock, and 4 µL of ATP/substrate working stock in the 384-well plate. After 1 h of incubation at room temperature, the activity of the ABL1 kinase was detected using the ADP-Glo Kinase Assay (Promega, Madison, WI, USA) and the inhibitory kinase activity of compounds in dose-response mode was measured by the Infinitive M1000 luminescence plate reader (Tecan, Groding, Austria).

K562 cells = experiment: Cell death detection (Hoechst 33342/annexin V/ethidium homodimer III staining); type: cell-based, human; conditions: K562, IC50 concentration, 8 h
Method: The cells were then briefly washed twice with 1 × binding buffer. A staining solution containing 50 μL of 1 × binding buffer and 5 μL of FITC-Annexin V solution, 5 μL of ethidium homodimer III solution, or 5 μL of Hoechst 33342 solution was added, and incubated for 15 min at room temperature in the dark. Then, the cells were washed with 1 × binding buffer, and analyzed by the all-in-one fluorescence microscope Biorevo Fluorescence BZ-9000 (Keyence, Osaka, Japan). The number of healthy cells (Hoechst 33342), apoptotic cells (Annexin V), late apoptotic or necrotic cells (Annexin V and Ethidium homodimer III) and necrotic cells (Ethidium homodimer III) were counted as previously described.

[5] = test system: A549 human lung carcinoma; experiment: MTT cell viability assay, A549; type: cell-based; conditions: for IC50: Homo sapiens, A549, MTT, 24 h exposure
Method: as §1, §2

ABL1 kinase [6] = target: T1, ABL1 kinase; conditions: a value in the previous paper; cited from earlier work

Row | SMILES | IC50 [1] [µM] | melting point [°C] | IC50 (CML cell line K562; Homo sapiens, K562, 24 h) [µM] | SI (selectivity index) (CML cell line K562) | IC50 (MCF7 human breast cancer) [µM] | ERK phosphorylation (phosphorylated ERK1/2) [2] | amount of ERK1/2 [2] | IC50 (MT-2) [µM] | IC50 (Jurkat) [µM] | IC50 [3] [µM] | IC50 (HL-60) [µM] | IC50 (ABL1 kinase [4]) [µM] | ABL kinase IC50 potency relative to 1c (ABL1 kinase [4]; fold vs 1c) | apoptotic effects on CML cell line (K562 cells) [%] | late apoptotic/necrotic effects (K562 cells) [%] | activity against A549 cell line at 100 µM [5] | IC50 [5] [µM] | IC50 (CML cell line K562) [µM] | IC50 (ABL1 kinase [6]) [µM]
1 | CC1(C)CC[C@]2(C(=O)OCc3ccc(C(F)(F)F)cc3)CC[C@]3(C)C(=CC[C@@H]4[C@@]5(C)CC[C@H](O)[C@@](C)(C=O)[C@@H]5CC[C@]43C)[C@@H]2C1 [GP3, Gypsogenin 4-trifluoromethyl benzyl ester] | 23.2 ± 3.08 | 175 to 177 | 4.58 ± 1.49 | 5.07 | – | – | – | – | – | – | – | – | – | – | – | – | – | – | –
2 | CC1(C)CC[C@]2(C(=O)OCc3ccccc3)CC[C@]3(C)C(=CC[C@@H]4[C@@]5(C)CC[C@H](O)C(C)(C)[C@@H]5CC[C@]43C)[C@@H]2C1 [PT5, Oleanolic acid benzyl ester] | 50.2 ± 4.58 | – | ~5.5 | 9.19 | 53.9 ± 6.46 | inhibitory effect of ERK phosphorylation | moderately decreased | 34.7 ± 3.85 | 13.8 ± 1.58 | 67 ± 4.19 | 15.7 ± 1.36 | 1.44 ± 0.12 | six times stronger; also recorded: about sixfold | 14 | 11 | inactive | > 100 | 5.46 ± 1.51 | –
3 | Cc1ccc(NC(=O)c2ccc(CN3CCN(C)CC3)cc2)cc1Nc1nccc(-c2cccnc2)n1 [Imatinib, reference compound] | – | – | – | – | – | – | – | – | – | – | – | – | – | 18 | 5.6 | – | – | – | –
4 | CC1(C)CC[C@]2(C(=O)OCc3ccccc3)CC[C@]3(C)C(=CC[C@@H]4[C@@]5(C)CC[C@H](O)[C@@](C)(C=O)[C@@H]5CC[C@]43C)[C@@H]2C1 [Compound 1c, benzyl ester of gypsogenin] | > 100 | – | 8.94 ± 1.73 | >11.19 | – | – | – | – | – | – | – | – | – | – | – | – | – | – | 8.71 ± 1.14
5 | COc1ccc(COC(=O)[C@]23CCC(C)(C)C[C@H]2C2=CC[C@@H]4[C@@]5(C)CC[C@H](O)[C@@](C)(C=O)[C@@H]5CC[C@@]4(C)[C@]2(C)CC3)cc1 [GP1, Gypsogenin 4-methoxybenzyl ester] | 25.1 ± 2.92 | 78 to 80 | 5.53 ± 1.78 | 4.53 | – | – | – | – | – | – | – | – | – | – | – | – | – | – | –
6 | CC1(C)CC[C@]2(C(=O)OCc3ccc(C#N)cc3)CC[C@]3(C)C(=CC[C@@H]4[C@@]5(C)CC[C@H](O)[C@@](C)(C=O)[C@@H]5CC[C@]43C)[C@@H]2C1 [GP5, Gypsogenin 4-cyanobenzyl ester] | 25.6 ± 2.18 | 175 to 177 | 3.19 ± 1.21 | 8.03 | 15.3 ± 2.11 | inhibitory effect of ERK phosphorylation | moderately decreased | 7.26 ± 0.97 | 4.83 ± 0.35 | 5.66 ± 0.32 | 4.36 ± 0.28 | 6.16 ± 0.63 | – | 9.5 | 5.1 | – | 24.6 ± 1.94 | – | –
7 | CC1(C)CC[C@]2(C(=O)OCc3cc(C(F)(F)F)cc(C(F)(F)F)c3)CC[C@]3(C)C(=CC[C@@H]4[C@@]5(C)CC[C@H](O)[C@@](C)(C=O)[C@@H]5CC[C@]43C)[C@@H]2C1 [GP2, Gypsogenin 3,5-bis(trifluromethyl)benzyl ester] | 52.8 ± 3.82 | 85 to 87 | 4.78 ± 1.25 | 11.04 | 51.6 ± 4.75 | inhibitory effect of ERK phosphorylation | moderately decreased | 36.8 ± 4.21 | 9.14 ± 0.71 | 35.3 ± 2.84 | 5.27 ± 0.42 | 7.19 ± 0.65 | – | 24 | 4.5 | inactive | > 100 | – | –
8 | CC1(C)CC[C@]2(C(=O)OCc3cc(F)cc(F)c3)CC[C@]3(C)C(=CC[C@@H]4[C@@]5(C)CC[C@H](O)[C@@](C)(C=O)[C@@H]5CC[C@]43C)[C@@H]2C1 [GP4, Gypsogenin 3,5-difluorobenzyl ester] | 28.3 ± 2.25 | 58 to 60 | 5.13 ± 1.38 | 5.51 | – | – | – | – | – | – | – | – | – | – | – | – | – | – | –
